# Measurements: patent publication US20060110769A1, “Regulation of novel human prolyl 4-hydroxylases” (Bayer Aktiengesellschaft, priority 2001, published 2006)
# System: human prolyl 4-hydroxylase
# Assay: Expression of human prolyl 4-hydroxylase by Western blotting in oligonucleotide-treated HCT116 cells
# Assay type: cell-based
# Settings: HCT116, 10 μM once per day for seven days
# Procedure: The cell line used for testing is the human colon cancer cell line HCT116. Cells are cultured in RPMI-1640 with 10-15% fetal calf serum at a concentration of 10,000 cells per milliliter in a volume of 0.5 ml and kept at 37° C. in a 95% air/5% CO2 atmosphere.
# Phosphorothioate oligoribonucleotides are synthesized on an Applied Biosystems Model 380B DNA synthesizer using phosphoroamidite chemistry. A sequence of 24 bases complementary to the nucleotides at position 1 to 24 of SEQ ID NO:1 or SEQ ID NO:3 is used as the test oligonucleotide. As a control, another (random) sequence is used: 5′-TCAACTGACTAGATGTACATGGAC-3′ (SEQ ID NO:11). Following assembly and deprotection, oligonucleotides are ethanol-precipitated twice, dried, and suspended in phosphate buffered saline at the desired concentration. Purity of the oligonucleotides is tested by capillary gel electrophoresis and ion exchange HPLC. The purified oligonucleotides are added to the culture medium at a concentration of 10 μM once per day for seven days.
# This effect is not observed with the control oligonucleotide. After 3 to 7 days, the number of cells in the cultures is counted using an automatic cell counter. The number of cells in cultures treated with the test oligonucleotide (expressed as 100%) is compared with the number of cells in cultures treated with the control oligonucleotide.
substance,measurement,value
"5′-TCAACTGACTAGATGTACATGGAC-3′ (TCAACTGACTAGATGTACATGGAC; listed as DNA, chemistry not given here) [control oligonucleotide]",expression of human prolyl 4-hydroxylase as determined by Western blotting,not observed
